# Assays:
# [1] = test system: human tumor-infiltrating lymphocytes (TIL); assay: Rapid Expansion Protocol (REP) of TIL; format: cell-based; conditions: day 42 (Pre-REP and REP)
# Protocol: PBMC, OKT3 antibody (30 ng/mL), complete medium (“CM”), AIM V media (GIBCO/BRL), and TIL effector cells were combined, mixed, and aliquoted to a 75 cm^2 tissue culture flask. Flasks were incubated upright at 37° C. in 5% CO2. […] About 14 days after initiation of the REP, cells were harvested and cryopreserved for future experimental analysis.
# [2] = test system: human T cells from peripheral blood mononuclear cells; assay: Flow cytometry immunophenotyping of T cells expanded from donor PBMC; format: cell-based; conditions: for CD4 TCM, percentage of total cell number / CD4 TEM, percentage of total cell number / CD4 TSCM, percentage of total cell number / CD8 TCM, percentage of total cell number / CD8 TEM, percentage of total cell number / CD8 TSCM, percentage of total cell number: donor PBMC, day 11
# Description: At day eleven, cells were pooled and counted, and immunophenotyped at day 11 by flow cytometry by measuring expression of lineage (CD4, CD8) and differentiation (including CD45RA, CD45RO, CD95, CCR7, CD62L, TCF1, PD-1, TIM3, LAG3) markers.
# T lymphocytes were defined based on lineage and differentiation marker expression according to the developmental model (Restifo, Blood, 124:476-477, 2014), as shown in Table 4.
# E.G7-OVA tumors = assay: Adoptive transfer of ex vivo expanded OT-1 cells into E.G7-OVA tumor-bearing mice: antitumor response; format: in vivo, mouse
# Description: Antigen specific T cells from transgenic mice can be leveraged as a model for CAR T or TIL expansion ex vivo with a Cbl inhibitor. The OT-1 transgenic animals, that are commercially available, have CD8 T cells that recognize OVA peptide aa 257-264 when presented by the MHC I molecule. CD8+ T cells from OT-1 mice were isolated from a single cell suspension of splenocytes by negative selection (StemCell Technologies cat #19853 EasySep™ Mouse CD8+ T Cell Isolation Kit). Cell were then resuspended in complete media (RPMI1640, 10% heat inactivated FBS, 1× Penicillin/Streptomycin, 1× Glutamine and […]-mercaptoethanol) at concentration of 0.5×10^6 per mL. Six well tissue culture plates (Falcon) were coated with 2 ug/mL of anti-mouse CD3 (Bio Xcell Cat #BE0001-1-R100 mg InVivoMAb anti-mouse CD3ε Clone: 145-2C11) for >3 hrs at 37° C. and washed with PBS (MediaTech) prior to cell addition. […] Following three days of OT-1 T cell activation and expansion the cells were collected, counted and immunophenotyped by flow cytometry by measuring expression of differentiation and additional T cell makers including: CD3, CD4, CD8, CD45, CD25, Granzyme B, CD107a, CD127, PD-1, TIM3, LAG3, KLRG-1, ICOS, TCF1, Ki67, T-bet and FOXP3.
# (§1) Dead cells were removed (Miltenyi Biotec Cat #130-090-101) prior to transfer in vivo to monitor their trafficking and function in an EG.7 lymphoma model, which expresses the OVA antigen. Approximately five million cells per mouse were transferred to mice having an average tumor burden of about 70 mm^3. Following in vivo transfer of the OT-1 cells, antitumor response was monitored over time and the quality and quantity of immune response were assessed at various time points.
# (§2) The expanded OT-1 cells were characterized by FACS analysis and transferred into E.G7-OVA mice, which bear ovalbumin (OVA) expressing tumors. Following in vivo transfer of expanded OT-1 cells, antitumor response was monitored over time and the quality and quantity of immune response was assessed at various time points. Analysis included FACS analysis on blood, tumor, and spleen samples. Analysis also included re-stimulation of splenocytes with OVA Class I peptide to evaluate the multifunctionality of the antigen-specific effector T cells.
# (§3) On Day 0, E.G7-OVA cells were implanted into each mouse. On Day 5, approximately 5×10^6 in vitro expanded OT-1 cells were injected into the tail of each mouse. On Day 9, blood was analyzed by FACS. On Day 14, blood, tumor and spleen samples were analyzed by FACS. On Day 27, blood was analyzed by FACS. Tumor volume was measured approximately every five days through about 50 days post implant.
# OT-1 cells = assay: FACS of transferred OT-1 cells in blood and tumor of E.G7-OVA mice; format: in vivo, mouse
# Protocol: as §1, §2, §3
# OT-1 cells were expanded according to the previous examples and administered to E.G7-OVA mice, which bear ovalbumin (OVA) expressing tumors. The cells were evaluated for their in vivo properties.
# Expanded OT-1 cells were assessed in blood 4 days and 22 days after transfer.
# Expanded OT-1 cells were assessed in tumors 4 days after transfer.
compound,measurement,setting,value
C[C@@H]1CN(Cc2cc3c(c(C(F)(F)F)c2)CN(c2cccc(C4(Cc5nncn5C)COC4)c2)C3=O)CCC1(F)F [compound 103],"Expansion of TIL (REP), total cell number relative to IL-2 alone","[1]; TIL1 (ovary), 0.1 μM Cbl-i",40%
same,"Expansion of TIL (REP), total cell number relative to IL-2 alone","[1]; TIL1 (ovary), 1.0 μM Cbl-i",42%
same,"Expansion of TIL (REP), total cell number relative to IL-2 alone","[1]; TIL1 (ovary), 10 μM Cbl-i",32%
same,"Expansion of TIL (REP), total cell number relative to IL-2 alone","[1]; TIL1 (ovary), IL-2 + 0.1 μM Cbl-i",50%
same,"Expansion of TIL (REP), total cell number relative to IL-2 alone","[1]; TIL1 (ovary), IL-2 + 1.0 μM Cbl-i",52%
same,"Expansion of TIL (REP), total cell number relative to IL-2 alone","[1]; TIL1 (ovary), IL-2 + 10 μM Cbl-i",49%
same,"Expansion of TIL (REP), total cell number relative to IL-2 alone","[1]; TIL3 (ovary), 0.1 μM Cbl-i",127%
same,"Expansion of TIL (REP), total cell number relative to IL-2 alone","[1]; TIL3 (ovary), 1.0 μM Cbl-i",150%
same,"Expansion of TIL (REP), total cell number relative to IL-2 alone","[1]; TIL3 (ovary), 10 μM Cbl-i",107%
same,"Expansion of TIL (REP), total cell number relative to IL-2 alone","[1]; TIL3 (ovary), IL-2 + 0.1 μM Cbl-i",193%
same,"Expansion of TIL (REP), total cell number relative to IL-2 alone","[1]; TIL3 (ovary), IL-2 + 1.0 μM Cbl-i",207%
same,"Expansion of TIL (REP), total cell number relative to IL-2 alone","[1]; TIL3 (ovary), IL-2 + 10 μM Cbl-i",197%
same,"Expansion of TIL (REP), total cell number relative to IL-2 alone","[1]; TIL4 (colon), 0.1 μM Cbl-i",80%
same,"Expansion of TIL (REP), total cell number relative to IL-2 alone","[1]; TIL4 (colon), 1.0 μM Cbl-i",80%
same,"Expansion of TIL (REP), total cell number relative to IL-2 alone","[1]; TIL4 (colon), 10 μM Cbl-i",107%
same,"Expansion of TIL (REP), total cell number relative to IL-2 alone","[1]; TIL4 (colon), IL-2 + 0.1 μM Cbl-i",167%
same,"Expansion of TIL (REP), total cell number relative to IL-2 alone","[1]; TIL4 (colon), IL-2 + 1.0 μM Cbl-i",194%
same,"Expansion of TIL (REP), total cell number relative to IL-2 alone","[1]; TIL4 (colon), IL-2 + 10 μM Cbl-i",240%
same,"Expansion of TIL (REP), total cell number relative to IL-2 alone","[1]; TIL6 (ovary), 0.1 μM Cbl-i",51%
same,"Expansion of TIL (REP), total cell number relative to IL-2 alone","[1]; TIL6 (ovary), 1.0 μM Cbl-i",63%
same,"Expansion of TIL (REP), total cell number relative to IL-2 alone","[1]; TIL6 (ovary), 10 μM Cbl-i",49%
same,"Expansion of TIL (REP), total cell number relative to IL-2 alone","[1]; TIL6 (ovary), IL-2 + 0.1 μM Cbl-i",206%
same,"Expansion of TIL (REP), total cell number relative to IL-2 alone","[1]; TIL6 (ovary), IL-2 + 1.0 μM Cbl-i",180%
same,"Expansion of TIL (REP), total cell number relative to IL-2 alone","[1]; TIL6 (ovary), IL-2 + 10 μM Cbl-i",168%
same,Percentage of CD8+ cells vs IL-2 alone,[2]; 1 μM Cbl inhibitor alone,higher percentages of CD8+ cells
same,Percentage of CD8+ cells in culture,[2]; IL-2 in combination with 0.1 or 0.5 μM of Cbl inhibitor,highest percentage of CD8+ cells
same,"CD4 TCM, percentage of total cell number",[2]; 0.1 μM Cbl-i,53.1%
same,"CD4 TEM, percentage of total cell number",[2]; 0.1 μM Cbl-i,23.9%
same,"CD4 TSCM, percentage of total cell number",[2]; 0.1 μM Cbl-i,12%
same,"CD8 TCM, percentage of total cell number",[2]; 0.1 μM Cbl-i,50.7%
same,"CD8 TEM, percentage of total cell number",[2]; 0.1 μM Cbl-i,14.2%
same,"CD8 TSCM, percentage of total cell number",[2]; 0.1 μM Cbl-i,17.1%
same,"CD4 TCM, percentage of total cell number",[2]; 1.0 μM Cbl-i,55.3%
same,"CD4 TEM, percentage of total cell number",[2]; 1.0 μM Cbl-i,19.3%
same,"CD4 TSCM, percentage of total cell number",[2]; 1.0 μM Cbl-i,7.27%
same,"CD8 TCM, percentage of total cell number",[2]; 1.0 μM Cbl-i,61.1%
same,"CD8 TEM, percentage of total cell number",[2]; 1.0 μM Cbl-i,12.9%
same,"CD8 TSCM, percentage of total cell number",[2]; 1.0 μM Cbl-i,7.29%
same,"CD4 TCM, percentage of total cell number",[2]; 10 μM Cbl-i,47.3%
same,"CD4 TEM, percentage of total cell number",[2]; 10 μM Cbl-i,23.3%
same,"CD4 TSCM, percentage of total cell number",[2]; 10 μM Cbl-i,1.37%
same,"CD8 TCM, percentage of total cell number",[2]; 10 μM Cbl-i,34.2%
same,"CD8 TEM, percentage of total cell number",[2]; 10 μM Cbl-i,9.23%
same,"CD8 TSCM, percentage of total cell number",[2]; 10 μM Cbl-i,10.8%
same,"CD4 TCM, percentage of total cell number",[2]; IL-2 + 0.1 μM Cbl-i,13.9%
same,"CD4 TEM, percentage of total cell number",[2]; IL-2 + 0.1 μM Cbl-i,29.7%
same,"CD4 TSCM, percentage of total cell number",[2]; IL-2 + 0.1 μM Cbl-i,8.53%
same,"CD8 TCM, percentage of total cell number",[2]; IL-2 + 0.1 μM Cbl-i,47.8%
same,"CD8 TEM, percentage of total cell number",[2]; IL-2 + 0.1 μM Cbl-i,18.3%
same,"CD8 TSCM, percentage of total cell number",[2]; IL-2 + 0.1 μM Cbl-i,4.2%
same,"CD4 TCM, percentage of total cell number",[2]; IL-2 + 1.0 μM Cbl-i,16.8%
same,"CD4 TEM, percentage of total cell number",[2]; IL-2 + 1.0 μM Cbl-i,28.4%
same,"CD4 TSCM, percentage of total cell number",[2]; IL-2 + 1.0 μM Cbl-i,1.98%
same,"CD8 TCM, percentage of total cell number",[2]; IL-2 + 1.0 μM Cbl-i,37.8%
same,"CD8 TEM, percentage of total cell number",[2]; IL-2 + 1.0 μM Cbl-i,41.4%
same,"CD8 TSCM, percentage of total cell number",[2]; IL-2 + 1.0 μM Cbl-i,0.23%
same,"CD4 TCM, percentage of total cell number",[2]; IL-2 + 10 μM Cbl-i,24.3%
same,"CD4 TEM, percentage of total cell number",[2]; IL-2 + 10 μM Cbl-i,25.8%
same,"CD4 TSCM, percentage of total cell number",[2]; IL-2 + 10 μM Cbl-i,2.69%
same,"CD8 TCM, percentage of total cell number",[2]; IL-2 + 10 μM Cbl-i,49%
same,"CD8 TEM, percentage of total cell number",[2]; IL-2 + 10 μM Cbl-i,10.6%
same,"CD8 TSCM, percentage of total cell number",[2]; IL-2 + 10 μM Cbl-i,9.36%
same,Selective expansion of CD8+ T lymphocytes,"[2]; donor PBMCs, FIGS. 2A and 2B",selectively expand CD8+ T lymphocytes
same,Anti-tumor phenotype of transferred T cells vs controls,"E.G7-OVA tumors; 3-day ex vivo exposure, alone or in combination with IL-2",conferred a lasting anti-tumor phenotype for over a month
same,Inhibition of tumor growth vs IL-2 expanded cells,"E.G7-OVA tumors; OT-1 cells expanded with compound 103, FIG. 12A",more pronounced inhibition of tumor growth
same,Long-term survival vs IL-2 expanded cells,"E.G7-OVA tumors; OT-1 cells expanded with compound 103, FIG. 12B",improved long-term survival
same,Inhibition of tumor growth vs single agents alone,"E.G7-OVA tumors; OT-1 cells expanded with compound 103 plus IL-2, FIG. 12A",more pronounced inhibition of tumor growth
same,Long term survival vs single agents alone,"E.G7-OVA tumors; OT-1 cells expanded with compound 103 plus IL-2, FIG. 12B",superior long term survival
same,Potency of expanded CD8+ OT-1 cells (tumor volume) vs IL-2 expanded,"E.G7-OVA tumors; expanded with compound 103 (1 μM) alone, FIGS. 11A and 11B",at least as potent
same,Rejection of established tumors by expanded OT-1 cells,"E.G7-OVA tumors; mice subcutaneously implanted with E.G7-OVA cells, FIG. 9",potent effectors capable of rejecting established tumors
same,Frequency in total CD45+ cells and persistence in blood vs IL-2 alone or anti-CD3 alone,"OT-1 cells; Cbl inhibitor expanded, 4 and 22 days after transfer",higher frequency in total CD45+ cells and persisted longer
same,Tumor infiltration (frequency in total CD45+ cells in tumor) vs IL-2 alone or anti-CD3 alone,"OT-1 cells; Cbl inhibitor expanded, 4 days after transfer",increased ability to infiltrate the tumor
same,"OT-1 cells expressing stem markers TCF1+, PD-1+, TIM-3−",OT-1 cells; OT-1 cells expanded with Cbl inhibitor,greater percentage of cells that expressed stem markers
same,Frequency in total CD45+ cells and persistence in blood,"OT-1 cells; expanded with Cbl inhibitor and IL-2, 4 and 22 days after transfer",even higher frequency in total CD45+ cells and higher persistence
same,Tumor infiltration (frequency in total CD45+ cells in tumor),"OT-1 cells; expanded with Cbl inhibitor and IL-2, 4 days after transfer",highest frequency in total CD45+ cells
same,"Expression of exhaustion markers PD1, TIM3, LAG3 in tumor vs IL-2 alone",OT-1 cells; expanded with Cbl inhibitor or Cbl inhibitor plus IL-2,lower level of expression of exhaustion markers

# Reference: patent US12121540B2, “CBL inhibitors and compositions for use in adoptive cell therapy” (Nurix Therapeutics, Inc., priority 2019, dated 2024)
